The source of these data is US20060019954A1, “Method for reducing the likelihood of the occurrence of cardiac arrhythmias” (Cedars-Sinai Medical Center, priority 2004, published 2006).

The structures appear in SMILES notation.

For this experiment, the system named is SCD canine subjects (myocardial infarction, complete AV block, NGF to left stellate ganglion). The experiment in a line: Effect of BRL 37344 infusion in the canine sudden cardiac death (SCD) model. The class given is in vivo. An excerpt:
The canine SCD model is created by inducing myocardial hyperinnervation within the left stellate ganglion in combination with creating a complete atrioventricular (AV) block and inducing a relatively mild myocardial infarction (MI). The AV block is typically created by ablating the AV node of the heart using an ablation catheter and the MI is induced by ligating the left anterior descending portion of the coronary artery. Myocardial hyperinnervation is stimulated by application of nerve growth factor (NGF) or other neurtrophic vectors to the left stellate ganglion. Alternatively, electrical stimulation signals may be applied to the left stellate ganglion.
Four canine groups were evaluated in this study. MI was created in each of the canine subjects by ligating the left anterior descending coronary artery. Complete AV block was created by radiofrequency ablation of the atrioventricular junction in the MI, SCD and RSG Groups. An ICD was used to monitor for the occurrence of ventricular arrhythmias. Nerve growth factor (NGF) was infused by an osmotic pump throughout a 4-5 week period in the left stellate ganglion (LSG) of the canine subjects in the SCD Group and in the right stellate ganglion (RSG) of the canine subjects in the RSG Group. The canine subjects in the SCD Group was characterized by a high incidence of SCD (44%), long QTc intervals and frequent episodes of ventricular tachycardia, whereas the RSG Group had no SCD, short QTc intervals and few episodes of VT.
Two canine groups were studied and compared to ascertain the effect of a β3 adrenergic receptor agonist (BRL 37344) on the incidence of phase-2 VT, typically leading to sudden cardiac death. Table 4 compares the incidence of phase-2 VT, QTc intervals and the size of myocardial infarction (“MI”) of SCD canine subjects and SCD canine subjects receiving BRL 37344 infusion.
β3 adrenergic receptor agonist BRL 37344 was infused subcutaneously by an osmotic pump (2 μg/kg/hr) for two weeks in two canine subjects with myocardial infarction, complete atrioventricular block and nerve growth factor to the left stellate ganglion (BRL Group). Surface ECG was continuously recorded by Data Sciences International (DSI) and analyzed manually.

For the compound `C[C@H](Cc1ccc(OCC(=O)O)cc1)NC[C@H](O)c1cccc(Cl)c1` [BRL 37344], the “Effect on incidence of ventricular arrhythmias” value (2 μg/kg/hr by osmotic pump for a two week period, mammalian SCD models) is recorded as “effective in significantly reducing the incidence of ventricular arrhythmias”. In addition, under “SCD canine subjects, BRL 37344 2 μg/kg/hr subcutaneous by osmotic pump for two weeks, n=2, SCD Group without infusion 2.0 ± 2.0 per day”, the “Incidence of Phase-2 VT” value is 0.08±0.11 per day. Moreover, under “SCD canine subjects, BRL 37344 2 μg/kg/hr subcutaneous infusion, throughout follow-up, SCD Group without infusion 400 ms”, the “QTc Interval” value is recorded as 350 ms. For the same compound, the “Size of MI” value (SCD canine subjects, BRL 37344 2 μg/kg/hr subcutaneous infusion, SCD Group without infusion 17 ± 4%) came out at 16±1.2%. Where the note is “short runs of VT episodes observed from day 36 to day 44 after surgery”, the “Phase-2 VT episodes, first canine subject of the BRL Group” value is recorded as “no phase-2 VT for five weeks”. Besides, for the setting “two canine subjects of the BRL Group, followed up for two months”, the “Occurrence of sudden cardiac death during follow-up” value is reported as “without SCD”. Further, for the setting “two months follow-up”, the “Phase-2 VT episodes, second canine subject of the BRL Group” value is recorded as “no phase-2 VT episodes”.
